Here are results for 1 molecule from patent US10369340B2, “Device and method for sustained release of low water solubility therapeutic agent in solubilizer” (N[…], INC., priority 2013, dated 2019).

The conditions of data set [1]: cited from earlier work.
Data set [2] is described as follows: solubility of testosterone in water and in ethanol. The data set is classed as physicochemical. Particulars: ethanol relative to water. An excerpt:
During use, IDD 100 can be used to administer API 200 by inserting IDD 100 into an area of a human anatomy, including for example, subcutaneously. With IDD 100 inserted into the desired anatomical area, portions of solubilizer 210 (with dissolved API 200) that are small enough to pass through channeled member 130 can be released over time into the area of the human anatomy or for systemic circulation. In certain embodiments, the solubility enhancement of API 200 and solubilizer 210 can range from approximately 2×, 3×, 4×, 5×, 6×, 7×, 8×, 9×, 10×, 11×, 12×, 13×, 14×, 15×, 16×, 17×, 18×, 19×, 20×, 21×, 22×, 23×, 24×, 25×, 26×, 27×, 28×, 29×, 30× or higher. In particular embodiments, the solubility enhancement can be up to 1000× and higher.

Regarding `C[C@]12CC[C@H]3[C@@H](CCC4=CC(=O)CC[C@@]43C)[C@@H]1CC[C@@H]2O` [testosterone], in data set [1] (ethanol), the solubility in ethanol result is “approximately 750 mg/ml”. For the same molecule, in data set [1] (water), the native water solubility is 35 µg/mL. The “solubility enhancement (increase, ethanol vs water)” value in data set [2] is reported as 20,000 ×.
